Results: patent publication US10556898B2, “Indazolyl-1,2,4-thiadiazolamines and related compounds for inhibition of Rho-associated protein kinase and the treatment of disease” (Lycera Corporation, priority 2016, dated 2020)
Like-named read-outs stand apart in the source and are kept apart here.

What was measured:
[1] = molecular target: T1, GST-tagged human ROCK1 catalytic domain 1-477 (Homo sapiens, UniProt Q13464); assay: Isolated Enzyme Assay, ROCK1 (LANCE Ultra ULight-CREBtide FRET); assay type: biochemical; details: 30 μM highest concentration tested, read-out: Results from Isolated Enzyme Assay IC50 (μM) ROCK1
T1 construct: human ROCK1 catalytic domain 1-477 from Carna Biosciences (cat #01-109); purchased Carna Biosciences 01-109; host or cells: baculovirus expression system
Experimental: (§1) Exemplary compounds were tested for ability to inhibit Rho-associated protein kinase isoform 1 (ROCK1) and Rho-associated protein kinase isoform 2 (ROCK2). Assay procedures and results are described below.
(§2) Part I—Procedure for Determining ROCK Inhibition Ability of Test Compounds Using an Isolated Enzyme Assay
(§3) Protein constructs were purified from a baculovirus expression system. The peptide substrate was fluorescent LANCE® Ultra ULight-CREBtide: […] (PerkinElmer, # TRF0107-D). Kinase reactions were carried out in a 10 μL volume in 384-well plates: 50 nM ULight-CREBtide substrate, 2 nM constitutively active ROCK1 or ROCK2 kinase, and test compound in DMSO (or DMSO only for controls) were diluted into assay buffer containing 50 mM Tris-HCl (pH=7.5), 10 mM MgCl2, 1 mM EGTA, 0.01% Tween-20, and 2 mM DTT such that the final concentration of DMSO was 0.5%. After a 90 minute incubation at room temperature on a shaker table, the kinase reaction was stopped by addition of 10 mM EDTA, and phosphorylation of the substrate was detected by adding 1 nM LANCE® Ultra Europium-anti-phospho-CREB (ser133) antibody (PerkinElmer, # TRF0200-D) and incubating for 60 minutes on a shaker at room temperature. The fluorescence resonance energy transfer (FRET) signals were read and analyzed on an Envision™ 2103 Multilabel Reader (Perkin Elmer). The concentration of test compound required to inhibit substrate phosphorylation by 50% (the IC50) was calculated by non-linear regression using GraphPad PRIZM.

[2] = molecular target: T2, GST-tagged human ROCK2 catalytic domain 1-553 (Homo sapiens, UniProt O75116); assay: Isolated Enzyme Assay, ROCK2 (LANCE Ultra ULight-CREBtide FRET); assay type: biochemical; details: 30 μM highest concentration tested, read-out: Results from Isolated Enzyme Assay IC50 (μM) ROCK2
T2 construct: GST-tagged human ROCK2 catalytic domain 1-553 from Carna Biosciences (Cat #01-110); purchased Carna Biosciences 01-110; host or cells: baculovirus expression system
Experimental: as §1, §2, §3

ROCK2 = molecular target: T3, ROCK2 (Homo sapiens, UniProt O75116); assay: Cell-Based Assay, ROCK2 (HAP1 knockout cells, phospho-MYPT1 Thr853 ELISA); details: read-out: Results from Cell-Based Assay IC50 (μM) ROCK2
T3 construct: endogenous in cells; host or cells: HAP1 knockout cells
Experimental: Part II—Procedure for Determining ROCK Inhibition Ability of Test Compounds Using a Cell-Base Assay
The Cell-Based Assay for determining ROCK inhibition ability of test compounds utilized a genetically modified HAP1 cell line engineered to eliminate expression of either ROCK1 or ROCK2. In the procedure, HAP1 knockout cells are grown in Iscove's Modified Dulbecco's Medium that is additionally supplemented with 10% fetal bovine and 1x antibiotic-antimycotic mixture. Cells are plated in 96 well tissue culture plates at 1×10^5 cells/well (100 μL, of cells at 1×10^6/mL). Test compounds are solubilized in DMSO and diluted into the same media used to grow the cells. A 100 μL, aliquot of each compound dilution in media is added to each well containing the HAP1 cells and incubated at 37° C. for 30 minutes. Following compound incubation, the cells are pelleted by centrifugation at 1800 rpm for 5 minutes at 4° C. Media is removed from the cell pellet and the cells lysed and de-salted. An 80 μL, aliquot of each cell lysate is added to a single well of a 96-well high binding ELISA plate which has been pre-coated with a MYPT1 capture antibody and incubated at 4° C. overnight. The following day the ELISA plate is washed 4× with 0.05% Tween-20 in PBS. After washing, an anti-phospho-MYPT1 (Thr853) antibody is added and allowed to bind for 1 hour at room temperature. The wash step is repeated, and then an anti-rabbit HRP detection antibody is added and allowed to incubate at room temperature for 1 hour. The wash step is then repeated and 100 μL/well 1-Step™ Ultra TMB substrate is added to the ELISA plate and allowed to develop for approximately 5 minutes. The reaction is stopped by addition of H2SO4. Absorbance is read at 450 OD. Data is analyzed using GraphPad Prism software to calculate the 50% inhibitory concentration of test compound (IC50).

[3] = phospho-MYPT1, 30 μM highest concentration tested

T2 sequence (O75116 1-553): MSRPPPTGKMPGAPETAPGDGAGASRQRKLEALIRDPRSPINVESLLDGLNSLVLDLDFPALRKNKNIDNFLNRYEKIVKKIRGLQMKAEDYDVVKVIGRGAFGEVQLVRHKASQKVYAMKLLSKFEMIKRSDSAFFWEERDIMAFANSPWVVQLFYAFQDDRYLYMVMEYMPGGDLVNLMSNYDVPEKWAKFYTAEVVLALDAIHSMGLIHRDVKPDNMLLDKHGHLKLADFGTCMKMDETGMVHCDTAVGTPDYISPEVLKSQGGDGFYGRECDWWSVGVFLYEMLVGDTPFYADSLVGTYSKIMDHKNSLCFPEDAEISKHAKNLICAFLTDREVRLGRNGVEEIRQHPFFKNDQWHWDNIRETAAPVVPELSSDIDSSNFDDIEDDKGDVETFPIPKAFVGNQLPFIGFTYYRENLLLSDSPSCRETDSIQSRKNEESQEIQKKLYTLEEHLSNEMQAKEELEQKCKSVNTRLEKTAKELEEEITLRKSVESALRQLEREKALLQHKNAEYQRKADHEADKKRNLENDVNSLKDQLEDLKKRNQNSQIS
T3 sequence (O75116 whole entry): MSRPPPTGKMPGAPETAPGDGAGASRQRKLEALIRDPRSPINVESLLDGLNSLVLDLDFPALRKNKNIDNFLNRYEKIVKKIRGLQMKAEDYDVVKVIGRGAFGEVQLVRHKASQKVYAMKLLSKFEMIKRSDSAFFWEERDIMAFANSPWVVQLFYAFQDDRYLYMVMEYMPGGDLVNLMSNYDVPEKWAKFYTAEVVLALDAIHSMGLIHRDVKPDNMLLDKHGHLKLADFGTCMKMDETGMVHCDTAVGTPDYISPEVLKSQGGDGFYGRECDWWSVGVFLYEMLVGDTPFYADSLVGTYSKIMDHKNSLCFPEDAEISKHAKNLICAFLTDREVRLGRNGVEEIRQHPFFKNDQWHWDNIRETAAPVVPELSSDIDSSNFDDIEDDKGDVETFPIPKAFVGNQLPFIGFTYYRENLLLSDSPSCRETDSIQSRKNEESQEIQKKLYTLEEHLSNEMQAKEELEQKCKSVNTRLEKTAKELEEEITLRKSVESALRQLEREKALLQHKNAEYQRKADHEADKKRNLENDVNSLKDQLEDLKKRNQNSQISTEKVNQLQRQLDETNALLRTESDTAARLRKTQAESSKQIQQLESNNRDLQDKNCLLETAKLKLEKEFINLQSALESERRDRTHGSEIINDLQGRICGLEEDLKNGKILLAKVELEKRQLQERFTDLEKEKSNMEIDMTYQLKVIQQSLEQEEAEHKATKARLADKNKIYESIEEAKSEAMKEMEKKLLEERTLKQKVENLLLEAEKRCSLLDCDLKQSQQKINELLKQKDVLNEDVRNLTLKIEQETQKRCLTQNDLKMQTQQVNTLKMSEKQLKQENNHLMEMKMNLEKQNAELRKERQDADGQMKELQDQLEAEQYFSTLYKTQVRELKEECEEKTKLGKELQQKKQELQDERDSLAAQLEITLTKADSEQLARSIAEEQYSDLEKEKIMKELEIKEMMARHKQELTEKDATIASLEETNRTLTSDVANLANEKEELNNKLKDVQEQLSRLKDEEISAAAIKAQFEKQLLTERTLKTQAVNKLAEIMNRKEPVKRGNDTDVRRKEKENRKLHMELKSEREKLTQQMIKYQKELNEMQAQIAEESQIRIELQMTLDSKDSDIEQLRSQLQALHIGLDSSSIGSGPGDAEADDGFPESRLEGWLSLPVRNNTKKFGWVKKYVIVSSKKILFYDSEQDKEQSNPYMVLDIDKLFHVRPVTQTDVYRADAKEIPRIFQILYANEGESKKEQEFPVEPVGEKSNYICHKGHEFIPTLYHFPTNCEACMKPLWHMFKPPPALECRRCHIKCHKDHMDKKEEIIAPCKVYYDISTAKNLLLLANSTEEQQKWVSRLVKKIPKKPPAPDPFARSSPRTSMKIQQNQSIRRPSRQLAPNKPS
T1 sequence (Q13464 1-477): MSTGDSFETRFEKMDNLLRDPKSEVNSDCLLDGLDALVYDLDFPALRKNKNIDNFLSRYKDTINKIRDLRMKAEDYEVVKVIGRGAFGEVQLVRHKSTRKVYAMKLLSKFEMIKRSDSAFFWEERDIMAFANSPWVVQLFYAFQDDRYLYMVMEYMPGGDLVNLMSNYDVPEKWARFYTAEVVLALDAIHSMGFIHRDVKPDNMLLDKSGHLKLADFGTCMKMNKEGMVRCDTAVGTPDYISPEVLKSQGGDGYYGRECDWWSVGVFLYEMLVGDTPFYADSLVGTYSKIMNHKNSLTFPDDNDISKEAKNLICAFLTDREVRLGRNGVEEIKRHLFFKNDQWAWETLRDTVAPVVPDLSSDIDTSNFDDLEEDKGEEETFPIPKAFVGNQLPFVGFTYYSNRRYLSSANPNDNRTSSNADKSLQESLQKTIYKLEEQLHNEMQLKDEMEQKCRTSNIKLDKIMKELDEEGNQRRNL

Row | IC50 ([1]; isolated enzyme) [µM] | IC50 ([2]; isolated enzyme) [µM] | IC50 (ROCK2; [3]) [µM] | IC50 ([1]; isolated enzyme assay) [µM] | IC50 ([2]; isolated enzyme assay) [µM] | IC50 (ROCK2; numeric bound) [µM] | IC50 (ROCK2; class symbols) [µM] | Compound
1 | – | – | – | < 1 | < 1 | > 10 | – | Cc1cc(NC(=O)c2cncs2)cc(-c2nsc(Nc3ccc4[nH]ncc4c3Cl)n2)n1 [IV-20]
2 | – | – | – | < 1 | < 1 | – | 1 to 15 | O=C(NC(CO)CO)c1cc(-c2nsc(Nc3ccc4[nH]ncc4c3Cl)n2)ccc1F [IV-21]
3 | – | – | – | > 30 | < 1 | > 10 | – | O=C(Nc1cncc(-c2nsc(Nc3ccc4[nH]ncc4c3Cl)n2)c1)c1cnco1 [IV-24]
4 | – | – | – | < 1 | < 1 | > 10 | – | Cc1cc(NC(=O)c2cnco2)cc(-c2nsc(Nc3ccc4[nH]ncc4c3Cl)n2)n1 [IV-25]
5 | – | – | – | > 30 | < 1 | > 10 | – | COc1ncc(C(=O)Nc2cc(-c3nsc(Nc4ccc5[nH]ncc5c4Cl)n3)ccn2)cn1 [IV-27]
6 | – | – | – | > 30 | < 1 | > 10 | – | O=C(Nc1cc(-c2nsc(Nc3ccc4[nH]ncc4c3Cl)n2)ccn1)c1cnco1 [IV-28]
7 | – | – | – | > 30 | < 1 | > 10 | – | Cn1cnc(C(=O)Nc2cc(-c3nsc(Nc4ccc5[nH]ncc5c4Cl)n3)ccn2)c1 [IV-29]
8 | – | – | – | < 1 | < 1 | – | < 1 | O=C(NC1CCC1)c1cc(-c2nsc(Nc3ccc4[nH]ncc4c3Cl)n2)ccc1F [IV-30]
9 | – | – | – | < 1 | < 1 | > 10 | – | Cn1nccc1C(=O)Nc1cccc(-c2nsc(Nc3ccc4[nH]ncc4c3C#N)n2)c1 [IV-33]
10 | – | – | – | < 1 | < 1 | – | 1 to 15 | CC1(C)CN(c2cccc(-c3nsc(Nc4ccc5[nH]ncc5c4C#N)n3)c2)C(=O)O1 [IV-34]
11 | – | – | – | 1 to 15 | < 1 | – | < 1 | Cn1cc(-c2nsc(Nc3ccc4[nH]ncc4c3Cl)n2)cc(NC(=O)c2ccccc2)c1=O [IV-39]
12 | – | – | – | > 30 | > 30 | – | 1 to 15 | COc1ccc(C(=O)Nc2cc(C)nc(-c3nsc(Nc4ccc5[nH]ncc5c4Cl)n3)c2)cc1 [IV-43]
13 | – | – | – | > 30 | > 30 | – | 1 to 15 | COc1cccc(C(=O)Nc2cc(C)nc(-c3nsc(Nc4ccc5[nH]ncc5c4Cl)n3)c2)c1 [IV-44]
14 | – | – | – | < 1 | < 1 | > 10 | – | CC(=O)Nc1cc(-c2nsc(Nc3ccc4[nH]ncc4c3Cl)n2)cn(C)c1=O [IV-45]
15 | – | – | – | > 30 | > 30 | – | 1 to 15 | O=C(Nc1cc(-c2nsc(Nc3ccc4[nH]ncc4c3Cl)n2)ccn1)c1ccccc1F [IV-60]
16 | – | – | – | > 30 | > 30 | – | – | Cc1coc(-c2cccc(-c3nsc(Nc4cc5cn[nH]c5cc4F)n3)c2)n1 [IV-93]
17 | – | – | – | > 30 | > 30 | – | – | Cn1nccc1C(=O)NC[C@@H]1CCN(c2nsc(Nc3ccc4[nH]ncc4c3Cl)n2)C1 [IV-94]
18 | – | – | – | > 30 | > 30 | – | – | O=c1c2ccccc2ncn1-c1cccc(-c2nsc(Nc3ccc4[nH]ncc4c3Cl)n2)c1 [IV-95]
19 | – | – | – | > 30 | > 30 | – | – | O=C(Nc1cc(-c2nsc(Nc3ccc4[nH]ncc4c3Cl)n2)ccn1)c1cocn1 [IV-96]
20 | – | – | – | > 30 | > 30 | – | – | Cc1nn(C(F)F)cc1S(=O)(=O)Nc1cccc(-c2nsc(Nc3ccc4[nH]ncc4c3Cl)n2)c1 [IV-98]
21 | – | – | – | > 30 | > 30 | – | – | CS(=O)(=O)c1cccc(-c2nsc(Nc3ccc4[nH]ncc4c3Cl)n2)c1 [IV-99]
22 | – | – | – | > 30 | > 30 | – | – | N#Cc1c(Nc2nc(-c3cccc([N+](=O)[O-])c3)ns2)ccc2[nH]ncc12 [IV-100]
23 | – | – | – | > 30 | > 30 | – | – | CP(C)(=O)c1cccc(-c2nsc(Nc3ccc4[nH]ncc4c3Cl)n2)c1 [IV-102]
24 | – | – | – | > 30 | > 30 | – | – | O=C(Cn1cc(Cl)cn1)Nc1cccc(-c2nsc(Nc3ccc4[nH]ncc4c3Cl)n2)c1 [IV-104]
25 | – | – | – | 15 to 30 | > 30 | – | – | NC[C@@H]1CCCN1c1nsc(Nc2ccc3[nH]ncc3c2Cl)n1 [IV-109]
26 | – | – | – | > 30 | 15 to 30 | – | – | Cn1nccc1C(=O)NC[C@@H]1CCCN1c1nsc(Nc2ccc3[nH]ncc3c2Cl)n1 [IV-110]
27 | – | – | – | > 30 | 1 to 15 | – | – | Cc1nc2ccccc2c(=O)n1-c1cccc(-c2nsc(Nc3ccc4[nH]ncc4c3Cl)n2)c1 [IV-111]

The next lines start with the molecule.

Row | Compound | IC50 ([1]; isolated enzyme) [µM] | IC50 ([2]; isolated enzyme) [µM] | IC50 (ROCK2; [3]) [µM] | IC50 ([1]; isolated enzyme assay) [µM] | IC50 ([2]; isolated enzyme assay) [µM] | IC50 (ROCK2; numeric bound) [µM] | IC50 (ROCK2; class symbols) [µM]
28 | Cn1nccc1C(=O)Nc1cc(-c2nsc(Nc3ccc4[nH]ncc4c3Cl)n2)ccn1 [Compound A-9] | > 30 | < 1 | < 1 | – | – | – | –
29 | Cc1coc(-c2cccc(-c3nsc(Nc4ccc5[nH]ncc5c4Cl)n3)c2)n1 [Compound A-10] | < 1 | < 1 | < 1 | – | – | – | –
30 | Cc1nc(C)c(C(=O)Nc2cccc(-c3nsc(Nc4ccc5[nH]ncc5c4Cl)n3)c2)s1 [Compound A-11] | < 1 | < 1 | < 1 | – | – | – | –
31 | Cc1cc(C(=O)Nc2cccc(-c3nsc(Nc4ccc5[nH]ncc5c4Cl)n3)c2)n(C)n1 [Compound A-12] | < 1 | < 1 | < 1 | – | – | – | –
32 | Cn1nc(C(=O)Nc2cccc(-c3nsc(Nc4ccc5[nH]ncc5c4Cl)n3)c2)cc1C(F)(F)F [Compound A-13] | < 1 | < 1 | < 1 | – | – | – | –
33 | O=C(Nc1cccc(-c2nsc(Nc3ccc4[nH]ncc4c3Cl)n2)c1)c1cnc[nH]1 [Compound A-14] | < 1 | < 1 | < 1 | – | – | – | –
34 | Cc1nn(C)cc1C(=O)Nc1cccc(-c2nsc(Nc3ccc4[nH]ncc4c3Cl)n2)c1 [Compound A-15] | < 1 | < 1 | < 1 | – | – | – | –
35 | O=C(Nc1cccc(-c2nsc(Nc3ccc4[nH]ncc4c3Cl)n2)c1)c1cncs1 [Compound A-16] | < 1 | < 1 | < 1 | – | – | – | –
36 | O=C(Nc1cccc(-c2nsc(Nc3ccc4[nH]ncc4c3Cl)n2)c1)c1cnco1 [Compound A-17] | < 1 | < 1 | < 1 | – | – | – | –
37 | Cc1cc(C(=O)Nc2cccc(-c3nsc(Nc4ccc5[nH]ncc5c4Cl)n3)c2)on1 [Compound A-18] | < 1 | < 1 | < 1 | – | – | – | –
38 | O=C(Nc1cc(-c2nsc(Nc3ccc4[nH]ncc4c3Cl)n2)ccn1)N1CCOCC1 [Compound A-19] | < 1 | < 1 | < 1 | – | – | – | –
39 | Cn1cc(CC(=O)Nc2cccc(-c3nsc(Nc4ccc5[nH]ncc5c4Cl)n3)c2)cn1 [Compound A-20] | < 1 | < 1 | < 1 | – | – | – | –
40 | O=C(Nc1cccc(-c2nsc(Nc3ccc4[nH]ncc4c3Cl)n2)c1)c1cocn1 [Compound A-21] | < 1 | < 1 | < 1 | – | – | – | –
41 | Cn1cnc(C(=O)Nc2cccc(-c3nsc(Nc4ccc5[nH]ncc5c4Cl)n3)c2)c1 [Compound A-22] | < 1 | < 1 | < 1 | – | – | – | –
42 | Cn1cncc1C(=O)Nc1cccc(-c2nsc(Nc3ccc4[nH]ncc4c3Cl)n2)c1 [Compound A-23] | < 1 | < 1 | < 1 | – | – | – | –
